Data set [1] concerns the target T1, OATP1B1*5 (Homo sapiens, UniProt Q9Y6L6, V174A).
T1 sequence (Q9Y6L6 1-691 V174A): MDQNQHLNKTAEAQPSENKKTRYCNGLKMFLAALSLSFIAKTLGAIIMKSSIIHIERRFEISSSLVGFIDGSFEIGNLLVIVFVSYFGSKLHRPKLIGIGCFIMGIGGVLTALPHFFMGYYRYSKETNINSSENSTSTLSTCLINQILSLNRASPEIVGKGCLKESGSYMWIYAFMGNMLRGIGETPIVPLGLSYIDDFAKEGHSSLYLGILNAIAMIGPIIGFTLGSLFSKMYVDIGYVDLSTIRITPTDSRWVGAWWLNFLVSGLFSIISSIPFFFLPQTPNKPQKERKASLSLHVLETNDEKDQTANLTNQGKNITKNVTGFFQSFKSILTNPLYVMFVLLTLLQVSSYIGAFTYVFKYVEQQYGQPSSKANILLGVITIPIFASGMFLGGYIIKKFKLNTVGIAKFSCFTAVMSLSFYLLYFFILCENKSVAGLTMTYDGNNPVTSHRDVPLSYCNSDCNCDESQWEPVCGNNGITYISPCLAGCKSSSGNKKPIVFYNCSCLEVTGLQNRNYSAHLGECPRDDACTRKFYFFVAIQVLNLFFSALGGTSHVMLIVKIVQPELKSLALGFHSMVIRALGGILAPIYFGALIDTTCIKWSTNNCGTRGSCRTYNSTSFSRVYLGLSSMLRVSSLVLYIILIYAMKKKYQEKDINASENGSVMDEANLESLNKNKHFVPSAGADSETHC
The data set can be described thus: inhibition of rosuvastatin uptake in OATP1B1*5-HEK293T cells, LC/MS. It counts as cell-based.

The target in data set [2] is T2, OATP1B1*1a (Homo sapiens, UniProt Q9Y6L6).
T2 sequence (Q9Y6L6 1-691): T1 sequence (Q9Y6L6 1-691 V174A) with A174V
Kind of data set: inhibition of rosuvastatin uptake in OATP1B1*1a-HEK293T cells, LC/MS. It counts as cell-based.

Substrate in data set [3]: CC(C)c1nc(N(C)S(C)(=O)=O)nc(-c2ccc(F)cc2)c1/C=C/[C@@H](O)C[C@@H](O)CC(=O)O
Kind of data set: concentration-dependent uptake kinetics. In kind it is cell-based, Homo sapiens.

Numbering of substitutions follows the chain as printed. Numbers in names are those of the source.

On to `C[C@H]1[C@H](C)CC[C@]2(C(=O)O)CC[C@]3(C)C(=CC[C@@H]4[C@@]5(C)CC[C@H](O)C(C)(C)[C@@H]5CC[C@]43C)[C@H]12` [UA, 3b-hydroxy-urs-12-en-28-oic-acid], for which the half-maximal inhibitory concentration (IC50) worked out at 6.07 ± 0.57 µM in data set [1] and 6.25 ± 0.42 µM in data set [2].

B1: OATP1B1*1a (Homo sapiens) (protein)
chain: T1 sequence (Q9Y6L6 1-691 V174A) with A174V
Regarding B1, the Km in data set [3] was 19.87 ± 5.96 µM.

B2: OATP1B1*5 (Homo sapiens; V174A) (protein)
chain: T1 sequence (Q9Y6L6 1-691 V174A)
Take B2: the Km in data set [3] was 10.05 ± 4.02 µM.

By IC50 is commonly meant the concentration at which inhibition is half-maximal. Read a low IC50 as greater potency. A word on the Km: it is the concentration of substrate that gives half-maximal velocity.

The values above are taken from PMC4142139 (European Journal of Drug Metabolism and Pharmacokinetics, 2014).
